# Where two headings read alike, the source gives them in different places. Marks after values point to notes of the source that are not given here.
# Tests used:
# [1] = biological target: T1, human DDC (Homo sapiens, UniProt P20711); assay: Assay of the inhibitory activity: spectrophotometric measurement of dopamine production by DDC; format: biochemical; conditions: for IC50: 0.1 mM L-Dopa, pH 7.4, 25°C, 9 concentrations in duplicate, read-out: IC50; for Ki′: mixed or noncompetitive inhibition; for Inhibition profile: type of inhibition from Lineweaver–Burk plots; for BE (binding efficiency): binding energy per unit of mass, from Ki and molecular weight in kDa
# T1 construct: made in house
# T1 sequence (P20711 1-480): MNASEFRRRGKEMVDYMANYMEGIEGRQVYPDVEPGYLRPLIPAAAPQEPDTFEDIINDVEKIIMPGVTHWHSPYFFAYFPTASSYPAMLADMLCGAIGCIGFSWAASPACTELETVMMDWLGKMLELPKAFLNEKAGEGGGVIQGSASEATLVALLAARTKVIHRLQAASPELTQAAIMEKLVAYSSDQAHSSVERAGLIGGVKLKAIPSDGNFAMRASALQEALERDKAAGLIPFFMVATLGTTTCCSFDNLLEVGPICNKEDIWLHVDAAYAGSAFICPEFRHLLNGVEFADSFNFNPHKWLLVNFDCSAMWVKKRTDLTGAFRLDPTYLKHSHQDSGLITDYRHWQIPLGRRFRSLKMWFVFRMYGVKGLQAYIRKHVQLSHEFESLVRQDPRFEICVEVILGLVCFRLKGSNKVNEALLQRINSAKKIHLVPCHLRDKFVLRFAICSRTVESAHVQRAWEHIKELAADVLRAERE
# Protocol: DDC activity was determined by measuring the production of dopamine with a spectrophotometric assay outlined by Sherald et al. and modified by Charteris and John. The reaction was carried out in 0.1 M potassium phosphate buffer pH 7.4 at 25°C for 1 min and stopped by inactivation of the enzyme at 100°C for 90 sec. The inhibitory assay was performed by measuring the decarboxylase activity of DDC with 50 nM enzyme, 0.1 mM L-Dopa, and 10 µM PLP in the presence and in the absence of a fixed amount of each compound. Various amounts of dimethyl sulphoxyde (DMSO) were necessary to solubilize the compounds in 100 mM potassium phosphate buffer, pH 7.4. […] Compounds were evaluated at 9 concentrations, and each in duplicate. IC50 values were derived by nolinear regression analysis. The related inhibition type of the compounds on human DDC was identified from Lineweaver–Burk plots, and Ki and/or Ki′ values for the inhibitors tested were calculated by the software Origin 7.0.
# [2] = biological target: T1, human DDC; assay: Enzyme-ligand equilibrium dissociation constant from visible CD signal changes of DDC; format: binding; conditions: change of 420 nm or 335 nm CD band, 100 mM potassium phosphate pH 7.4
# Protocol: The equilibrium dissociation constant for each tested compound from DDC was determined by monitoring the decrease in the 420 nm CD signal of DDC (7 µM) in the presence of various ligand concentrations in 100 mM potassium phosphate buffer, pH 7.4. In any case, the maximun DMSO concentration in the mixture was kept lower than 1% (v/v). The KD values were obtained from the fitting of the data to the equation [drawing 3] where [E]t and [L]t represent the total concentrations of DDC dimer and ligand, respectively, Y refers to the visible CD signal change at 420 nm at the ligand concentration [L], and Ymax refers to the CD signal when all enzyme molecules are complexed with the ligand. CD measurements were performed with a Jasco J-710 spectropolarimeter using quartz cuvettes with 1 cm path length.
# [3] = 0.1 M potassium phosphate pH 7.4, 25°C, from Lineweaver–Burk plots
# [4] = 50 nM enzyme, L-Dopa, 10 µM PLP, 0.1 M potassium phosphate pH 7.4, 25°C, from Lineweaver–Burk plots, read-out: Ki
# [5] = at a concentration in which solubility of the compound was maximum
# [6] = Ki, competitive inhibition, Table 4, third screening
Compound,"IC50 ([1]; 50 nM enzyme, 10 µM PLP) [µM]","Ki′ [1, 3]",Inhibition profile [1],"Ki [1, 4] [µM]","Inhibition of DDC activity [1, 5]",BE (binding efficiency) [1],Kd [2] [µM],"Ki [1, 6] [µM]",Inhibition of DDC activity ([1]; at 200 µM (the concentration of its maximum solubility)),DDC inhibitory activity in words ([1]; structure-activity discussion)
Oc1ccc(/C=N/n2c(S)nnc2-c2ccc(Cl)cc2Cl)c(O)c1 [Compound 35],29 ± 2,127±16^b µM,noncompetitive inhibitors,–,–,–,–,–,–,–
O=C(O)c1cccc(NS(=O)(=O)c2ccc3nnn(O)c3c2)c1 [Compound 1],570 ± 66,–,competitive inhibition,106 ± 7,≥ 70%,11.9,240 ± 68,–,–,–
O=C1C(=Cc2ccc(O)c(O)c2)C(=O)c2ccccc21 [Compound 10],12.8 ± 0.4,23.1 ± 1.1 µM,mixed inhibition,6.03 ± 0.55,≥ 70%,–,–,–,–,–
COc1ccc(-c2nnc(S)n2/N=C/c2ccc(O)c(O)c2)cc1 [Compound 44],1.7 ± 0.2,–,–,–,–,"18,4",–,0.5 ± 0.1,–,–
Oc1ccccc1/C=N/n1c(S)nnc1-c1ccccc1Cl [Compound 29],–,208 ± 3 µM,mixed mode,44.4 ± 2.3,–,–,–,–,–,–
Oc1cccc(/C=N/n2c(S)nnc2-c2ccccc2Cl)c1 [Compound 28],17 ± 1,–,competitive inhibitors,14 ± 1,–,14.7,21.1 ± 3.5,–,–,–
Oc1cccc(/C=N/n2c(S)nnc2-c2ccc(Cl)cc2)c1 [Compound 24],77.1 ± 2.4,–,competitive inhibitors,120 ± 14,–,11.9,–,–,–,–
Oc1ccc(C=Nn2c(S)nnc2-c2ccccc2)c(O)c1 [Compound 27],–,43.1 ± 1.9 µM,mixed mode,24.8 ± 1.2,–,–,–,–,–,–
Oc1cccc(/C=N/n2c(S)nnc2-c2ccc(Cl)cc2Cl)c1 [Compound 20],–,–,competitive inhibitors,36.8 ± 4.2,–,12.1,28.2 ± 3.2,–,–,–
Oc1ccc(/C=N/n2cnnc2)cc1O [Compound 38],76 ± 5.8,–,–,–,–,"22,6",24.5 ± 4.4,24.5 ± 1.4,–,–
Oc1c(Br)cc(Br)cc1/C=N/n1c(S)nnc1-c1ccc(Cl)cc1Cl [Compound 32],–,17 ± 0.2 µM,mixed mode,4.5 ± 0.3,–,–,–,–,–,–
COc1ccccc1-c1nnc(S)n1/N=C/c1ccc(O)c(O)c1 [Compound 47],> 200,–,–,–,–,–,–,–,does not inhibit DDC activity,–
Cc1cccc(NC(=O)COC(=O)c2[nH]c(=O)[nH]c(=O)c2N)c1C [Compound 8],–,–,–,–,do not inhibit DDC activity,–,–,–,–,–
Oc1ccc(/C=N/n2c(S)nnc2-c2ccco2)cc1O [Compound 40],3.5 ± 0.2,–,–,–,–,"19,4",–,1.4 ± 0.1,–,–
Oc1ccccc1/C=N/n1c(S)nnc1-c1ccc(Cl)cc1Cl [Compound 19],–,–,–,–,–,–,–,–,–,poorly active
O=S(=O)(c1ccc2nnn(O)c2c1)N1CCCCC1 [Compound 2],1500 ± 220,–,competitive inhibition,390 ± 30,≥ 70%,12.1,516 ± 126,–,–,–
Oc1ccc(/C=N/n2c(S)nnc2-c2ccc(Cl)cc2)cc1O [Compound 21],6.3 ± 0.9,–,competitive inhibitors,2.3 ± 0.4,–,16.3,2.5 ± 0.7,–,–,–
Oc1ccc(/C=N/n2c(S)nnc2-c2ccc(Cl)cc2Cl)cc1O [Compound 30],29.8 ± 4.8,–,competitive inhibitors,12.2 ± 0.4,–,12.9,25.1 ± 3.5,–,–,–

# Source: paper PMC3285636, “Identification by Virtual Screening and In Vitro Testing of Human DOPA Decarboxylase Inhibitors” (PLoS ONE, 2012)
